Laboratory results: publication PMC7956476, “Quinoline Functionalized Schiff Base Silver (I) Complexes: Interactions with Biomolecules and In Vitro Cytotoxicity, Antioxidant and Antimicrobial Activities” (Molecules, 2021)
In brackets after ≈: the same amount, converted by molar mass. Read-outs that look alike come from different tables or passages of the source.

Key:
[1] = system: Escherichia coli ATCC 25922; assay: Minimum inhibitory concentration (MIC), spotting on Müeller–Hinton agar; format: cell-based; conditions: Gram − Ve; E. coli; 37 °C, 18 h
Protocol: (§1) Sterilized Nutrient agar medium was first prepared by dissolving 38 g of Müeller–Hinton agar (MHA) (Biolab, Midrand, Africa) in distilled water (1 L). […] The cooled Agar medium was poured in Petri dishes while ensuring a uniform 4 mm depth of the medium and cooling further to ambient temperature.
(§2) These bacteria were inoculated in a sterilized Nutrient Broth (NB) (Biolab, Midrand, Africa) through streak plate technique and incubated at 37 °C for 18 h. The nutrient broth was sterilized by dissolving 1.3 g in distilled water (100 mL). Ca. 10 mL of the nutrient broth was transferred into a cotton wool-plugged test tubes and wrapped with an aluminium foil. […] Following this was the isolation of a single colony of the bacteria and inoculated into a 10 mL sterile NB which was then incubated in a shaking incubator at 37 °C for 18 h. Each of the bacteria strain concentrations was adjusted with sterile distilled water to get a final concentration of 1.5 × 10^8 cfu/mL, i.e., 0.5 Mc Farland’s Standard using a densitometer (Mc Farland Latvia). The bacteria were lawn inoculated on the set MHA Petri dishes using a sterile cotton swab. Screening of L1–L5 and Q1–Q15 for antibacterial activity was first carried out by spotting 5 µL of their solution (prepared from the dissolution of 1000 µg of the L1–L5 and Q1–Q15 in 1 mL dimethyl sulfoxide (DMSO)) on an MHA petri dish and incubated at 37 °C for 18 h. The antibacterial activity was determined by looking out for a clear zone at the spotting point.

[2] = system: Klebsiella pneumoniae ATCC 31488; assay: as above; format: cell-based; conditions: versus the standard (0.8 µg/mL)
Protocol: as §1, §2

[3] = system: Pseudomonas aeruginosa ATCC 27853; assay: as above; format: cell-based; conditions: Gram − Ve; P. aeruginosa; 37 °C, 18 h
Protocol: as §1, §2

[4] = system: Salmonella typhimurium ATCC 14026; assay: as above; format: cell-based; conditions: Gram − Ve; S. typhi; 37 °C, 18 h
Protocol: as §1, §2

[5] = system: Staphylococcus aureus ATCC 25923; assay: as above; format: cell-based; conditions: Gram + Ve; S. aureus; 37 °C, 18 h
Protocol: as §1, §2

[6] = system: Staphylococcus aureus ATCC 700699 (methicillin-resistant); assay: as above; format: cell-based; conditions: Gram + Ve; methicillin-resistant S. aureus; 37 °C, 18 h
Protocol: as §1, §2

[7] = Ferric reducing antioxidant power (FRAP) assay; format: biochemical; conditions: done in triplicate
Text: Antioxidants are important in protecting the human body against damage by reactive oxygen species (ROS). Accumulation of ROS in the cells may lead to damage of the DNA, RNA, and proteins which subsequently leads to several physiological disorders such as cardiovascular disease, diabetes, rheumatism, atherosclerosis, cancer, aging and cell death. […] The free radical scavenging ability of all ligands and complexes in this study were investigated using ferric reducing antioxidant power (FRAP). In antioxidant studies, FRAP assay is often preferred because it is simple, fast, economical, and direct in antioxidant measurement. FRAP assay is based on the electron-donating ability of an antioxidant compound. This involves the reduction of a colorless Fe^3+ tripyridyltriazine complex (Fe^3+ (TPTZ)) to an intense blue-colored Fe^2+ tripyridyltriazine complex (Fe^2+ (TPTZ)) by the electron-donating antioxidants at low pH [69]. The reducing power is to determine the reductive ability of the test compounds.
Antioxidant activity studies of L1–L5 and Q1–Q15 were done using ferric reducing antioxidant power (FRAP) assay. The ferric reducing antioxidant power assay is often used to evaluate the ability of an antioxidant to donate an electron. […] The resulting mixture was incubated at 50 °C for 20 min, and 2.5 mL of 10% trichloroacetic acid was added to acidify the mixture. After that, 1 mL of the acidified mixture was added to 1 mL of distilled water and 0.5 mL of 0.1% FeCl3. The absorbance of the resulting solution was then measured at 700 nm. The antioxidant power of the compounds was expressed as a percentage of ferric reducing antioxidant power Ascorbic acid equivalent, as shown in Equation (4). (4) % FRAP =Absorbance of Absorbance of Sample/Absorbance of Ascorbic Acid ×100

[8] = system: calf thymus DNA (CT-DNA); assay: CT-DNA electronic absorption titration (Wolfe–Shimer); format: binding
Protocol: The interaction of the L1–L5 and complexes Q1–Q15 with calf thymus-DNA was carried out in a Phosphate buffer saline solution pH 7.2 stored at 4 °C. The DNA stock solution was prepared by dissolving CT-DNA sodium salt in Phosphate buffer saline solution with continuous stirring overnight. It was filtered and stored at 4 °C and used within four days. […] A fixed amount of the L1–L5 and complexes Q1–Q15 (50 µM) were prepared by dissolving an appropriate amount in DMSO. […] Therefore, in all the experimental of the interaction of L1–L5 and complexes Q1–Q15 with biomolecules, the final concentration of DMSO in the incubation mixture was ~2% (v/v).
The binding modes of L1–L5 and complexes Q1–Q15 to CT-DNA were characterized through electronic absorption titration by varying concentrations of CT-DNA (0–30 µM) in phosphate buffer saline solution against fixed concentrations (20 µM) of L1–L5 and complexes Q1–Q15. […] The absorbance of CT-DNA is cancelled by adding equivalent amounts of CT-DNA to both the tested compounds and the reference solutions.

[9] = system: CT-DNA-EB adduct; assay: Fluorescence competitive displacement of ethidium bromide from CT-DNA; format: binding, calf; conditions: for CT-DNA-EB-Complex Ksv (M^−1) × 10^4: Stern–Volmer quenching constant, EB displacement, 25 °C; for CT-DNA-EB-Complex Kq (M^−1S^−1) × 10^12: bimolecular quenching constant, Ksv = Kqτo, τo 10^−8 s; for CT-DNA-EB-Complex Kbin (M^−1) × 10^5: binding constant from double-logarithmic plot
Text: The Stern–Volmer plot approach was used based on the fact that the Stern–Volmer plots for Q1–Q15 (Figure 5c), were linear an indication of only one mechanism for the quenching fluorescence, i.e., either dynamic or static. […] (1) Ksv=Kqτo where Ksv, Kq, and τo represent Stern–Volmer quenching constant, bimolecular quenching constant, and an average lifetime of the fluorophore in the absence of the quencher, respectively. τₒ normally takes about 10^−8 s in biomacromolecules.
The double-logarithmic Equation (2) was used in determining the binding constant of complexes Q1–Q15 and CT-DNA. (2) logFo−F/F=logKb+n logQ
A competitive displacement study was carried out using fluorescence spectroscopy between CT-DNA pre-treated with ethidium bromide (EB) and complexes Q1–Q15 to establish the complexes′ actual mode of binding to CT-DNA. […] The competitive luminescence displacement assay was done using a modified method. Pre-treated 15 µM solution of EB with 15 µM of CT-DNA was prepared in a phosphate buffer of pH 7.2 and left to equilibrate for 30 min. Keeping CT-DNA-EB concentrations constant, different concentrations (0–20 µM) of the complexes were added at 8 min incubation interval at room temperature. The fluorescence quenching ability of CT-DNA bound EB by the complexes were recorded in the wavelength range of 530–700 nm with an excitation wavelength at 525 nm at 25 °C. (6) Fo/F=1+KSVQ=1+KqτoQ
A Stern–Volmer (Equation (6)) was used to evaluate the CT-DNA-EB fluorescence quenching of the complexes. Where Fo and F denote the relative fluorescence intensities of CT-DNA in the absence and presence of the quencher, Ksv, Stern–Volmer quenching constant, [Q], quencher concentration, Kq, bimolecular quenching constant and τo, average lifetime of the fluorophore in the absence of the quencher which is typically equal to 10^−8 s in biomacromolecules.

[10] = biological target: bovine serum albumin (BSA) (Bos taurus, UniProt P02769); assay: Albumin binding by absorption spectroscopy titration
Chain of bovine serum albumin (BSA) (P02769 25-607): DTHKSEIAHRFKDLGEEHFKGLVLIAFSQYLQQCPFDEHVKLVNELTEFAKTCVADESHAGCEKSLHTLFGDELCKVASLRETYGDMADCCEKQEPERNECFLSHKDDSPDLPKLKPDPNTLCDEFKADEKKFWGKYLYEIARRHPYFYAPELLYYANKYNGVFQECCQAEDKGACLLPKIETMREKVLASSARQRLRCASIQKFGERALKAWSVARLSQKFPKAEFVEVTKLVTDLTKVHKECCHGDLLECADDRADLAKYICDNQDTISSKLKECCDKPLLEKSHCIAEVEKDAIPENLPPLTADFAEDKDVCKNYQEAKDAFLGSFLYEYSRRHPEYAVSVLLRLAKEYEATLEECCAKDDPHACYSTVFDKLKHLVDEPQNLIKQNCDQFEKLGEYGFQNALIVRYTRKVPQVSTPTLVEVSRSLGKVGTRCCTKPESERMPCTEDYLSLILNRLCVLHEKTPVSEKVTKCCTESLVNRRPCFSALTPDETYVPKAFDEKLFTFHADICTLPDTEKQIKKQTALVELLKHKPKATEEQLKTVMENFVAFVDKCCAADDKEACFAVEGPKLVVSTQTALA
Text: Bovine serum albumin (BSA) was used as the protein standard in this study because of its close resemblance to human serum albumin (HSA), its stability, high solubility, neutrality in many biochemical reactions and low cost. In protein binding study, absorption spectroscopy titration is a known method used in studying the conformational changes in proteins, and this protein is characterized by an intense absorbance peak at 280 nm depicting the microenvironment around tyrosine and tryptophan residue polarity.
The absorbance assay of albumin binding is a very simple method used in identifying the conformational changes in protein. […] A stock solution of bovine serum albumin (BSA) was prepared by dissolving an appropriate amount of BSA in phosphate buffer saline solution (pH 7.2) under constant stirring for 1 h at 25 °C. It was kept at 4 °C and used within four days. […] The stock solution of the complex was prepared by dissolving 1 mmol of the complexes in DMSO. The absorption titration assay was done by adding different concentrations (0–10 µM) of the complexes to a constant BSA concentration (6 µM). The sample solution was incubated after each addition of the concentrations for 10 min at 25 °C before recording the absorbance at λmax 280 nm.

[11] = system: Staphylococcus aureus ATCC 25923; parameters: method as in doi:10.1016/j.poly.2019.06.038; conditions: standard; S. aureus; cited from earlier work
[12] = system: Staphylococcus aureus ATCC 700699 (methicillin-resistant); parameters: method as in doi:10.1016/j.poly.2019.06.038; conditions: standard; cited from earlier work
[13] = system: Pseudomonas aeruginosa ATCC 27853; parameters: method as in doi:10.1016/j.poly.2019.06.038; conditions: standard; P. aeruginosa; cited from earlier work
[14] = system: Salmonella typhimurium ATCC 14026; conditions: standard; S. typhi; cited from earlier work
[15] = system: Escherichia coli ATCC 25922; parameters: method as in doi:10.1016/j.poly.2019.06.038; conditions: standard; E. coli; cited from earlier work
[16] = intrinsic binding constant, absorption titration, PBS pH 7.2

Structure (SMILES) | Minimum inhibitory concentration, EC [1] | activity times higher than the standard against K. pneumoniae [2] | Minimum inhibitory concentration, PA [3] | Minimum inhibitory concentration, ST [4] | Minimum inhibitory concentration, SA [5] | Minimum inhibitory concentration, MRSA [6] | Antioxidant (IC50 mg/mL) FRAP [7] | CT-DNA-Cmp. Kb (M^−1) × 10^5 [8, 16] | CT-DNA-EB-Complex Ksv (M^−1) × 10^4 [9] | CT-DNA-EB-Complex Kq (M^−1S^−1) × 10^12 [9] | CT-DNA-EB-Complex Kbin (M^−1) × 10^5 [9] | Protein-Complex Kb (M^−1) × 10^4 [10] | CT-DNA-Cmp. Kb (M^−1) × 10^5 ([8]; pH 7.2) | Minimum inhibitory concentration, SA [11] | Minimum inhibitory concentration, MRSA [12] | Minimum inhibitory concentration, PA [13] | Minimum inhibitory concentration, ST [14] | Minimum inhibitory concentration, EC [15] | hypochromic shift in the absorption bands on addition of CT-DNA ([8]; absorption titration with CT-DNA) | Protein-Complex Kb (M^−1) × 10^4 ([10]; BSA absorption titration, 280 nm, 25 °C)
Clc1ccc(N=Cc2ccc3ccccc3n2)cc1.Clc1ccc(N=Cc2ccc3ccccc3n2)cc1.[Ag+].[O-][Cl+3]([O-])([O-])[O-] [Complex Q8, [Ag(L3)2]ClO4] | 1.6 µg/mL | 64 times | 0.1 µg/mL | 25 µg/mL | 50 µg/mL | 25 µg/mL | 3.27 ± 0.093 mg/mL | 30.0 (M^−1) × 10^5 | 3.98 (M^−1) × 10^4 | 3.98 (M^−1S^−1) × 10^12 | 1.02 (M^−1) × 10^5 | 9.48 (M^−1) × 10^4 | – | – | – | – | – | – | – | –
C(=NCc1cccs1)c1ccc2ccccc2n1.C(=NCc1cccs1)c1ccc2ccccc2n1.O=[N+]([O-])[O-].[Ag+] [Complex Q5, [Ag(L5)2]NO3] | 1.6 µg/mL | 32 times | – | 12.5 µg/mL | 50 µg/mL | 100 µg/mL | 2.04 ± 0.0032 mg/mL | 4.00 (M^−1) × 10^5 | 2.31 (M^−1) × 10^4 | 2.31 (M^−1S^−1) × 10^12 | 1.03 (M^−1) × 10^5 | 5.95 (M^−1) × 10^4 | – | – | – | – | – | – | – | –
O=[N+]([O-])[O-].[Ag+] [AgNO3, silver nitrate, reference compound] | 0.8 µg/mL | – | 12.5 µg/mL | 1000 µg/mL | 3.125 µg/mL | 0.2 µg/mL | 1.43 ± 0.03 mg/mL | – | 3.12 (M^−1) × 10^4 | 3.12 (M^−1S^−1) × 10^12 | 4.50 (M^−1) × 10^5 | 4.49 (M^−1) × 10^4 | 3.00 (M^−1) × 10^5 | – | – | – | – | – | – | –
O=C(O)c1cn(C2CC2)c2cc(N3CCNCC3)c(F)cc2c1=O [Ciprofloxacin] | – | – | – | – | – | – | – | – | – | – | – | – | – | 25 µg/mL (≈ 75.4 µM) | 25 µg/mL (≈ 75.4 µM) | 0.2 µg/mL (≈ 0.604 µM) | 0.4 µg/mL (≈ 1.21 µM) | 1.6 µg/mL (≈ 4.83 µM) | – | –
[Ag+].[O-][Cl+3]([O-])([O-])[O-] [AgClO4, silver perchlorate, reference compound] | 25 µg/mL | – | 0.8 µg/mL | 0.2 µg/mL | 3.125 µg/mL | 6.25 µg/mL | 0.88 ± 0.051 mg/mL | 3.30 (M^−1) × 10^5 | 3.31 (M^−1) × 10^4 | 3.31 (M^−1S^−1) × 10^12 | 6.00 (M^−1) × 10^5 | – | – | – | – | – | – | – | 23.64–50.86% | 4.82 (M^−1) × 10^4
